Consider 1 compound from patent publication US20250194593A1, “PESTICIDAL COMPOSITIONS COMPRISING PENTANAL AND USES THEREOF” (MIGAL GALILEE RESEARCH INSTITUTE LTD., priority 2022, published 2025).

The subject of series [1] is pathogen related decay (spoilage) of fruits (pears, strawberries and mandarins). Nature of the series: decay of fruits exposed to pentanal and stored. The class given is in vivo. The following applies: 10 to 30 ppm pentanal; stored in a cold room and/or at 20° C. As for the experimental part:
Furthermore, various fruits (e.g. pears, strawberries and mandarins) have been exposed to between 10 and 30 ppm of pentanal (e.g. in a form of vapors, or by contacting thereof with an appropriate amount of any one of the composition of the invention). Upon exposure, the treated fruits have been stored for different time periods (in a cold room and/or at 20° C.). Subsequently, the decay of treated fruits has been examined and compared to untreated fruits.

In series [2] the test system is Botrytis cinerea. Nature of the series: rot development on inoculated pears after cold storage. The class given is in vivo. The following applies: pentanal vapors 18 ppm; 2 months of cold storage (0° C.). The method, then: (§1) FIGS. 3A-3B are bar graphs representing the development of rots (in mm) on pears that were inoculated with Penicillium expansum (3A) and Botrytis cinera (3B) spores. Pears were inoculated with different concentrations of Penicillium expansum spores: 10^3 spores (A); 10^4 spores (B); 10^5 spores (C). The diameter of rots (in mm) was assessed after 2 months of cold storage (at 0° C.). The graphs represent untreated pears versus pears treated by pentanal vapors (18 ppm).
(§2) The decay was measured after 2 months of cold storage (0° C.).

The test system of series [3] is Penicillium expansum. Described as above. The class given is in vivo. The following applies: pentanal vapors 18 ppm; 10^3-10^5 spores; 2 months of cold storage (0° C.). As for the experimental part: as §1, §2
For series [4], the system named is Penicillium expansum and/or Botrytis cinerea. Nature of the series: storage shelf-life of inoculated fruit and vegetables exposed to pentanal vapors. The class given is in vivo. The following applies: strawberries. An excerpt:
Furthermore, the inventors tested the storage shelf-life of various inoculated fruit and vegetables species, such as: apples, pears, strawberries, lichi, cucumbers, citrus fruits, grapes under similar storage conditions upon exposure thereof to pentanal vapors. The fruits have been inoculated with Penicillium expansum and/or Botrytis cinerea spores and exposed to pentanal vapors at a concentration ranging between 30 and 100 ppm during the cold storage. […] The exact preservative effective amount of pentanal vapors varies dependent on the specific fruit specie, for example strawberries require higher concentration of pentanal, about 80-100 ppm.

Series [5] relates to Penicillium expansum spores. In words: effect of different volatiles on viability of spores (CFU). The class given is cell-based. To be noted: 0.9, 1.8 or 18 μL/L. As for the experimental part: FIGS. 4A-4B are bar graphs representing antifungal activity of different VOCs. FIG. 4A represents the effect of Butyl acetate (B) Hexyl acetate (H), Isoamyl acetate (I), Trans-2-Hexanal (T), and Pentanal (P) and Control (C) at the concentrations of 1.8 μL/L or 18 μL/L on Penicillium expansum spores (CFU). Different letters represent significant differences between treatments (p<0.05). A-C-1.8 μL/L, a-c-18 μL/L 1.8. FIG. 4B represents the effect of different volatiles Hexyl acetate (H), Trans-2-Hexanal (T), Pentanal (P), Hexanal (He) and Control (C) at the concentrations of 0.9 μL/L, 1.8 μL/L or 18 μL/L on Penicillium expansum spores (CFU). Different letters represent significant differences between treatments (p<0.05). A-C-1.8 μL/L, a-c-18 μL/L 1.8.
The inventors additionally examined the effect of different volatiles on the viability of Penicillium expansum spores. The volatiles tested were: Butyl acetate, Hexyl acetate, Isoamyl acetate, […] and they were compared to Pentanal at two different concentrations (1.8 μL/L or 18 μL/L). Furthermore, the inventors examined lower concentration (0.9 μL/L) for the following VOCs hexanal, trans-hexenal, and hexyl acetate on Penicillium expansum spores (CFU).

Series [6] deals with Penicillium expansum spores. Nature of the series: spores incubated on PDA plates, then exposed to pentanal vapors for 24 hr. The class given is cell-based. The method, then:
The effect of incubation period (hours) of Penicillium expansum spores on PDA plates followed by exposure to pentanal vapors (1.8 ppm, or 18 ppm) for 24 hr was examined.

A short description of series [7]: pentanal release rate into the ambient air from compositions. The format is physicochemical. To be noted: release of 50% of the initial pentanal amount into the ambient air. An excerpt: The inventors further calculated pentanal release rate into the ambient air from various compositions of the invention and compared the release rate to neat pentanal (liquid), as a negative control. Table 1 presents the time period required for release of 50% of the initial pentanal amount.

The subject of series [8] is Penicillium expansum. In words: electron microscopy of mycelium and spores treated with pentanal. The following applies: pentanal treated vs untreated. The class given is cell-based. As for the experimental part:
FIGS. 2A-2C are micrographs presenting the effect of pentanal vapors (lower panel) on the mycelium (2A), conidia (2B), and spores (2C) of Penicillium expansum, as compared to untreated counterparts (upper panel). White arrows represent damage of Penicillium expansum upon exposure to pentanal vapors. Mycelium and spores of Penicillium expansum treated and untreated with pentanal were analyzed using electronic microscope. Untreated mycelium and the spores of Penicillium expansum developed normally (FIG. 2, upper panel) while the Pentanal treated samples were impaired, the round structure of the mycelium was altered and along the mycelium damaged sites were observed (FIG. 2A). The conjugation sites of the spores in conidiophore were also damaged (FIG. 2B), and ruptures were visible on the spores' surface (FIG. 2C).

For series [9], the system named is Botrytis cinerea. In words: Petri dish with PDA inoculated with fungi spores exposed to pentanal vapors. The format is cell-based. To be noted: pentanal vapors about 18 ppm; vs untreated plates. An excerpt:
(§3) FIGS. 1A-1C are images representing inhibition of various plant pathogens Alternaria alternata (1A), Botrytis cinerea (1B), and Penicillium expansum (1C) by pentanal vapors at a concentration of 18 ppm. The inventors tested anti-fungal efficiency of pentanal vapors by exposing various fruits pathogens (e.g., Alternaria, Botrytis, and Penicillium species) to pentanal vapors at a concentration of about 18 ppm. Fruit (in vivo) or Petri dish with PDA (in vitro) inoculated with fungi spores (10^3-10^6 spores/ml) were exposed to pentanal vapors at concentrations of 10-100 ppm for 24 hr. after which the samples were aired and incubated until the pathogens developed in the untreated samples which served as control. The results of this experiment are represented in FIG. 1.

Series [10] has as its system Penicillium expansum. The description is as above. The format is cell-based. To be noted: pentanal vapors about 18 ppm; vs untreated plates.
Text: as §3

Series [11] concerns Alternaria alternata. The description is as above. The format is cell-based. To be noted: pentanal vapors about 18 ppm; vs untreated plates.
Text: as §3

With `CCCCC=O` [Pentanal], the “decay of treated fruits compared to untreated fruits” value in [1] is “prevention pathogen related decay (spoilage)”. For the same compound, the “decay development in inoculated pears” value in series [2] and in series [3] was “significantly delayed decay development” in each case. In addition, in series [4] (pentanal vapors 30 to 100 ppm during cold storage, apples, pears, lichi, cucumbers, citrus fruits, grapes), the “shelf-life of inoculated fruits and vegetables vs non-treated controls” value was “significantly prolong the shelf-life”. For the same compound, the “preservative effective amount of pentanal vapors” value in [4] is 80-100 ppm. The “anti-fungal activity (CFU) compared to other VOCs” value in series [5] is “significantly enhanced anti-fungal activity”. For the same compound, the “fungal colonies 6 days after exposure” value in series [6] (pentanal vapors 1.8 ppm for 24 hr) and in series [6] (pentanal vapors 18 ppm for 24 hr) was “no fungal colonies were detected” each time. For the same compound, the “Time (min) until 50% release” value in series [7] was 5 min. The “damage to mycelium, conidiophore and spores (electron microscope)” value in [8] is listed as “physical damage”. Moreover, the “fungal growth in petri dish” value in series [9], in series [10] and in [11] was “completely prevented fungal growth” in each case.
